Five compounds from patent publication US7173037B2, “Carbamate-substituted pyrazolopyridines” (Bayer HealthCare AG, priority 2002, dated 2007) can be followed below.

For series [1], the system named is CYP2C19. The series can be described thus: Induction of cytochrome P450 enzymes in human liver cell cultures, CYP2C19. Conditions: human hepatocyte cultures, 2000 μM, control = 1.0.
The subject of another series is CYP3A4. To be noted: human, hepatocytes.
The subject of series [2] is CYP2B6. In words: Induction of cytochrome P450 enzymes in human liver cell cultures, CYP2B6. To be noted: human hepatocyte cultures, 2000 μM, control = 1.0.
For another series, the system named is CYP1A2. The series can be described thus: Induction of cytochrome P450 enzymes in human liver cell cultures, CYP1A2. The series is classed as in vitro ADME. To be noted: human hepatocyte cultures, control = 1.0.
Series [3] concerns CYP2C19. To be noted: human, hepatocytes, 5 days.
Series [4] concerns CYP2B6. Conditions: human, hepatocytes, 5 days.
The subject of a further series is rabbit aorta rings. In words: Vasorelaxant effect in vitro (phenylephrine-contracted aorta rings). The format is cell-based. Conditions: Oryctolagus cuniculus, phenylephrine contraction, read-out: IC50 (concentration necessary to reduce the height of the contraction by 50%). The procedure: Rabbits are stunned by a blow to the back of the neck and are exsanguinated. The aorta is removed, freed of adherent tissue and divided into rings 1.5 mm wide, which are put singly under tension in 5 ml organ baths containing carbogen-gassed Krebs-Henseleit solution at 37° C. with the following composition (mM): NaCl:119; KCl:4.8; CaCl2×2H2O:1; MgSO4×7H2O:1.4; KH2PO4:1.2; NaHCO3:25; Glucose:10. The force of contraction is detected with Statham UC2 cells, amplified and digitized via A/D converters (DAS-1802 HC, Keithley Instruments Munich) and recorded in parallel on chart recorders. A contraction is generated by adding phenylephrine to the bath cumulatively in increasing concentration. After several control cycles, the substance to be investigated is investigated in each further run in increasing dosage in each case, and the height of the contraction is compared with the height of the contraction reached in the last preceding run. The concentration necessary to reduce the height of the control value by 50% (IC50) is calculated from this. The standard application volume is 5 μl, and the DMSO content in the bath solution corresponds to 0.1%.

The next series concerns rabbit penis erection. In words: Rabbit model (erection, length of the protruding penis). To be noted: oral administration, with simultaneous 0.2 mg/kg i.v. sodium nitroprusside SNP. The series is classed as in vivo, chinchilla rabbits. The procedure: Adult male chinchilla rabbits weighing 3–5 kg are adapted to being kept singly for several days after delivery. They have free access to water and can take feed for two hours a day. The animals are kept in a 10/14-hour day/night rhythm (light on from 8.00 h), and the room temperature is 22–24° C.
Three to six animals are used in each treatment group and are weighed immediately before the start of the test. For the i.v. administration, the substances are dissolved in Transcutol (GATTEFOSSE GmbH) and diluted in the ratio 3/7 with a 20% strength Cremophor solution (Cremophor (BASF), water). A volume of 0.5 ml/kg is injected into the ear vein. Water-soluble substances are injected in 0.9% sodium chloride solution.
For oral administration, the test substances are dissolved in a 6:10:9.69 glycerol:water:polyethylene glycol mixture and administered by gavage in a volume of 1 ml/kg.
Under resting conditions, the rabbit penis is invisible in the pubic region and is completely covered by the penis skin. The erection is assessed by measuring the length of the protruding penis with a slide calliper. […] The animals are for this purpose removed from the cage each time, held firmly by the neck fur and the rear paws, turned on their backs and measured. […]

On the set-up of series [5]: species or system rats. To be noted: rat, in vivo, po. The procedure: The substance to be investigated is administered intravenously as solution to animals (e.g. mice, rats, dogs), and oral administration takes place as solution or suspension by gavage. After administration of the substance, blood is taken from the animals at fixed times and is heparinized, and then plasma is obtained therefrom by centrifugation. The substance is quantified analytically in the plasma by LC/MS/MS. The plasma concentration/time courses found in this way are used to calculate the pharmacokinetic parameters by means of a validated pharmacokinetic computer programme.
Inhibition of Cytochrome P450 Enzymes

pIC50: −log10 of the molar value. Read-outs that look alike come from different tables or passages of the source.

One may read the minimal effective dose as the lowest level tested that produced the effect sought.

As for `CCC1(c2ccccc2)C(=O)NC(=O)NC1=O` [PB, phenobarbital], the “Inductive effect on CYP2C19 activity (standardized)” value in the series with CYP2C19 [1] came out at 4.00. Also, the “Inductive effect on CYP3A4 activity (standardized)” value (shortened to “Inductive effect on CYP3A4 activity”) in the series with CYP3A4 is listed as 6.70. Further, the “Inductive effect on CYP2B6 activity (standardized)” value (shortened to “Inductive effect on CYP2B6 activity”) in the series with CYP2B6 [2] was 14.69.
As to `COc1ccc2[nH]c([S+]([O-])Cc3ncc(C)c(OC)c3C)nc2c1` (stereo not drawn) [OME, omeprazole, reference compound], the “Inductive effect on CYP1A2 activity (standardized)” value in the series on CYP1A2 (100 μM) was 28.57. The “Inductive effect on CYP3A4 activity” value in the series with CYP3A4 (5 days, 100 μM) is recorded as 1.45. Also, the “Inductive effect on CYP2C19 activity (standardized)” value in the series on CYP2C19 [3] (100 μM) turned out to be 1.61. For the same compound, the “Inductive effect on CYP2B6 activity” value with CYP2B6 [4] (100 μM) is 1.54.
In the case of `COC(=O)N(C)c1c(N)nc(-c2nn(Cc3ccccc3F)c3ncccc23)nc1N` [Example 8, Methyl 4,6-diamino-2-[1-(2-fluorobenzyl)-1H-pyrazolo[3,4-b]pyridin-3-yl]-5-pyrimidinyl(methyl)carbamate], the “Inductive effect on CYP1A2 activity (standardized)” value in the series on CYP1A2 (0.01 μg/ml) was 0.76; in the series with CYP1A2 (0.1 μg/ml), 0.70; with CYP1A2 (1.0 μg/ml), 0.90; with CYP1A2 (10 μg/ml), 1.38. Besides, the “Inductive effect on CYP3A4 activity” value in the series with CYP3A4 (5 days, 0.01 μg/ml) is recorded as 1.37; in the series on CYP3A4 (5 days, 0.1 μg/ml), 1.60; with CYP3A4 (5 days, 1 μg/ml) it was 1.51; in the series with CYP3A4 (5 days, 10 μg/ml), 3.47. In addition, the “Inductive effect on CYP2C19 activity (standardized)” value in the series on CYP2C19 [3] (0.01 μg/ml) is recorded as 1.30; in the series with CYP2C19 [3] (0.1 μg/ml), 1.30; in the series with CYP2C19 [3] (1 μg/ml), 1.12; in the series on CYP2C19 [3] (10 μg/ml), 1.97. In addition, in the series on rabbit aorta rings, the pIC50 was 6.30. The “Inductive effect on CYP2B6 activity” value in the series with CYP2B6 [4] (0.01 μg/ml) is reported as 1.92; in the series on CYP2B6 [4] (0.1 μg/ml) it was 1.62; in the series with CYP2B6 [4] (1 μg/ml), 1.85; with CYP2B6 [4] (10 μg/ml), 2.54. In the series on rabbit penis erection, this compound came in with a minimal effective dose of 0.03 mg/kg. The AUCstand in series [5] (0.3 mg/kg) is 0.326 kg·h/L; in series [5] (1 mg/kg) it was 0.548 kg·h/L.
On to `COC(=O)N(C)c1cnc(-c2nn(Cc3ccccc3F)c3ncccc23)nc1N` [Example 1, Methyl 4-amino-2-[1-(2-fluorobenzyl)-1H-pyrazolo[3,4-b]pyridin-3-yl]-5-pyrimidinyl(methyl)carbamate], for which the pIC50 with rabbit aorta rings is 6.17.
Consider `CO[C@H]1/C=C/O[C@@]2(C)Oc3c(C)c(O)c4c(O)c(c(/C=N/N5CCN(C)CC5)c(O)c4c3C2=O)NC(=O)/C(C)=C\C=C\[C@H](C)[C@H](O)[C@@H](C)[C@@H](O)[C@@H](C)[C@H](OC(C)=O)[C@@H]1C` [RIF, rifampicin, reference compound], for which the “Inductive effect on CYP2C19 activity (standardized)” value with CYP2C19 [3] (50 μM) came out at 15.21. Further, the “Inductive effect on CYP2B6 activity” value in the series on CYP2B6 [4] (50 μM) was found to be 5.15.
